Legend:
[1] = test system: Laodelphax striatellus; assay: Insecticidal test against Laodelphax striatellus; conditions: 500 ppm drug solution, rice seedlings immersed 30 seconds, three-instar insects, eight days after inoculation
[2] = test system: Plutella xylostella; assay: Insecticidal test against Plutella xylostella; conditions: 500 ppm drug solution, Chinese cabbage seedlings with eggs immersed about 30 sec, six days after immersion, 25° C.
Excerpt: Insecticidal Test Against Plutella xylostella
Six days after the immersion in the drug solution, the number of surviving insects was examined. […] In triplicate using 10 per plot.

[3] = test system: Frankliniella occidentalis; assay: Insecticidal test against Frankliniella occidentalis; conditions: 500 ppm drug solution sprayed on hatched larvae on Phaseolus vulgaris leaf pieces, four days after treatment
Excerpt: Insecticidal Test Against Frankliniella occidentalis
Female adults of Frankliniella occidentalis were inoculated onto Phaseolus vulgaris leaf pieces, and after allowing them to lay eggs for one day, the female adults were removed. […] Four days after the treatment, the number of surviving larvae of this species larvae was examined. […] In duplicate.

[4] = test system: Dirofilaria immitis; assay: Influence evaluation test on the growth of Dirofilaria immitis; conditions: 168 h, read-out: development inhibition rate from the L3 stage larva to the L4-stage larva

Row | SMILES | corrected mortality, rating of assessment [1] | corrected mortality, rating of assessment [2] | corrected mortality, rating of assessment [3] | inhibition at 10 µM [4]
1 | CN1C(=O)C(C(=O)Nc2ccc(Cl)cc2)=C(O)CC1c1ccc(C(F)(F)F)cc1 (centres unmarked) [1-4] | D or higher | D or higher |  | 
2 | O=C(Nc1ccc(F)cc1)C1=C(O)CC(c2ccc(C(F)(F)F)cc2)N(Cc2ccccc2)C1=O (centres unmarked) [1-5] |  | D or higher | D or higher | 
3 | CN1C(=O)C(C(=S)Nc2ccc(F)cc2)=C(O)CC1c1ccc(C(F)(F)F)cc1 (centres unmarked) [1-8] |  | D or higher | D or higher | 
4 | CN1C(=O)C(C(=O)Nc2ccc(F)cn2)=C(O)CC1c1ccc(C(F)(F)F)cc1 (centres unmarked) [1-10] |  | D or higher |  | 
5 | CN1C(=O)C(C(=S)Nc2ccc(F)cn2)=C(O)CC1c1ccc(C(F)(F)F)cc1 (centres unmarked) [1-11] |  | D or higher |  | 
6 | CN1C(=O)C(C(=O)Nc2ccc(F)cc2)=C(O)CC1c1ccc(C(F)(F)F)nc1 (centres unmarked) [1-12] | D or higher | D or higher |  | 
7 | CN1C(=O)C(C(=O)Nc2ccc(F)cn2)=C(O)CC1c1ccc(C(F)(F)F)nc1 (centres unmarked) [1-13] | D or higher | D or higher |  | 
8 | CN1C(=O)C(C(=O)Nc2ccc(F)nc2)=C(O)CC1c1ccc(C(F)(F)F)cc1 (centres unmarked) [1-14] | D or higher | D or higher | D or higher | 
9 | CN1C(=O)C(C(=O)Nc2ncc(F)cn2)=C(O)CC1c1ccc(C(F)(F)F)cc1 (centres unmarked) [1-15] |  | D or higher |  | 
10 | C#CCNC(=O)C1=C(O)CC(c2ccc(C(F)(F)F)cc2)N(C)C1=O (centres unmarked) [1-27] |  | D or higher |  | 
11 | CCCN1C(=O)C(C(=O)Nc2ccc(F)cn2)=C(O)CC1c1ccc(C(F)(F)F)nc1 (centres unmarked) [1-31] | D or higher | D or higher | D or higher | 
12 | CCCN1C(=O)C(C(=O)Nc2ccc(F)cc2)=C(O)CC1c1ccc(C(F)(F)F)nc1 (centres unmarked) [1-32] | D or higher | D or higher |  | 
13 | C#CCN1C(=O)C(C(=O)Nc2cc(C)on2)=C(O)CC1c1ccc(C(F)(F)F)nc1 (centres unmarked) [1-33] | D or higher | D or higher | D or higher | 
14 | C#CCN1C(=O)C(C(=O)Nc2ccn(C)n2)=C(O)CC1c1ccc(C(F)(F)F)nc1 (centres unmarked) [1-34] | D or higher | D or higher |  | 
15 | C#CCN1C(=O)C(C(=O)Nc2ccnc(F)c2)=C(O)CC1c1ccc(C(F)(F)F)nc1 (centres unmarked) [1-35] | D or higher | D or higher |  | 
16 | C#CCN1C(=O)C(C(=O)Nc2ccc(F)cn2)=C(O)CC1c1ccc(Cl)nc1 (centres unmarked) [1-36] | D or higher | D or higher | D or higher | 
17 | C#CCN1C(=O)C(C(=O)Nc2ccc(F)cn2)=C(O)CC1c1ccc(SC)cc1 (centres unmarked) [1-37] | D or higher | D or higher |  | 
18 | C#CCN1C(=O)C(C(=O)Nc2ccc(F)cn2)=C(O)CC1c1ccc([S+](C)[O-])cc1 (centres unmarked) [1-38] | D or higher | D or higher |  | 
19 | C#CCN1C(=O)C(C(=O)Nc2ccc(F)cn2)=C(O)CC1c1ccc(S(C)(=O)=O)cc1 (centres unmarked) [1-39] | D or higher | D or higher |  | 
20 | C#CCN1C(=O)C(C(=O)Nc2ccc(SC)cc2)=C(O)CC1c1ccc(C(F)(F)F)nc1 (centres unmarked) [1-41] | D or higher |  |  | 
21 | C#CCN1C(=O)C(C(=O)Nc2ccc([S+](C)[O-])cc2)=C(O)CC1c1ccc(C(F)(F)F)nc1 (centres unmarked) [1-42] | D or higher |  |  | 
22 | C#CCN1C(=O)C(C(=O)Nc2ccc(S(C)(=O)=O)cc2)=C(O)CC1c1ccc(C(F)(F)F)nc1 (centres unmarked) [1-43] | D or higher |  |  | 
23 | C#CCN1C(=O)C(C(=O)Nc2ccc(F)cc2)=C(O)CC1c1ccc(SC)cc1 (centres unmarked) [1-44] |  | D or higher |  | 

Row | SMILES | corrected mortality, rating of assessment [1] | corrected mortality, rating of assessment [2] | corrected mortality, rating of assessment [3] | inhibition at 10 µM [4]
24 | CN1C(=O)C(C(=O)Nc2ccc(SC(F)(F)F)cc2)=C(O)CC1c1ccc(C(F)(F)F)nc1 (centres unmarked) [1-49] |  | D or higher |  | 
25 | CN1C(=O)C(C(=O)Nc2ccc(NS(C)(=O)=O)cc2)=C(O)CC1c1ccc(C(F)(F)F)nc1 (centres unmarked) [1-60] |  | D or higher |  | 
26 | O=C1NCC(c2ccccc2C(F)(F)F)C(O)=C1C(=O)Nc1ccccc1F (centres unmarked) [3-3] |  | D or higher |  | 
27 | O=C1NCC(c2ccc(Cl)cc2)C(O)=C1C(=O)Nc1ccc(F)cc1 (centres unmarked) [3-10] |  | D or higher |  | 
28 | CN1CC(C)(c2ccc(C(F)(F)F)cc2)C(O)=C(C(=O)Nc2ccc(F)cc2)C1=O (centres unmarked) [3-11] |  | D or higher |  | 
29 | CN1CC(C)(c2ccc(C(F)(F)F)cc2)C(O)=C(C(=O)Nc2ccc(C(F)(F)F)cc2)C1=O (centres unmarked) [3-12] |  | D or higher |  | 
30 | CCC1(c2ccc(C(F)(F)F)cc2)CN(C)C(=O)C(C(=S)Nc2ccc(F)cn2)=C1O (centres unmarked) [3-23] | D or higher | D or higher |  | 
31 | CCC1(c2ccc(C(F)(F)F)cc2)CNC(=O)C(C(=O)Nc2ccc(F)cc2)=C1O (centres unmarked) [3-24] | D or higher | D or higher |  | 
32 | CCC1(c2ccc(C(F)(F)F)cc2)CN(C)C(=O)C(C(=O)Nc2ncc(F)cn2)=C1O (centres unmarked) [3-26] | D or higher |  |  | 
33 | CCC1(c2ccc(C(F)(F)F)cc2)CN(C)C(=O)C(C(=O)NN2CCOCC2)=C1O (centres unmarked) [3-27] | D or higher |  |  | 
34 | CCC1(c2ccc(C(F)(F)F)cc2)CN(C)C(=O)C(C(=O)Nc2cnc3ccccc3c2)=C1O (centres unmarked) [3-29] |  | D or higher |  | 
35 | CCC1(c2ccc(C(F)(F)F)cc2)CN(C)C(=O)C(C(=O)Nc2ccc(OC)cc2)=C1O (centres unmarked) [3-31] | D or higher | D or higher |  | 
36 | CCC1(c2ccc(C(F)(F)F)cc2)CN(C)C(=O)C(C(=O)Nc2ccc(C)cc2)=C1O (centres unmarked) [3-34] |  | D or higher |  | 
37 | CCC1(c2ccc(C(F)(F)F)cc2)CN(C)C(=O)C(C(=O)Nc2ccc(S(C)(=O)=O)cc2)=C1O (centres unmarked) [3-35] | D or higher | D or higher |  | 
38 | CCC1(c2ccc(C(F)(F)F)cc2)CN(C)C(=O)C(C(=O)Nc2ccc(C3CC3)cc2C)=C1O (centres unmarked) [3-38] |  | D or higher |  | 
39 | CN1C(=O)C(C(=O)Nc2ccc(C(F)(F)F)cc2)=C(O)CC1c1ccc(C(F)(F)F)cc1 (centres unmarked) [compound No. 1-1, 4-hydroxy-1-methyl-2-oxo-N, 6-bis(4-(trifluoromethyl)phenyl)-1,2,5,6-tetrahydropyridine-3-carboxamide] |  | D or higher |  | 
40 | CN1C(=O)C(C(=O)Nc2ccc(OC(F)(F)F)cc2)=C(O)CC1c1ccc(C(F)(F)F)cc1 (centres unmarked) [compound No. 1-2] |  | D or higher |  | 
41 | CN1C(=O)C(C(=O)NCc2ccc(F)cc2)=C(O)CC1c1ccc(C(F)(F)F)cc1 (centres unmarked) [compound No. 1-3] |  | D or higher |  | 
42 | CN1C(=O)C(C(=S)Nc2ccc(C(F)(F)F)cc2)=C(O)CC1c1ccc(C(F)(F)F)cc1 (centres unmarked) [compound No. 1-9, 4-hydroxy-1-methyl-2-oxo-N, 6-bis(4-(trifluoromethyl)phenyl)-1,2,5,6-tetrahydropyridine-3-carbothioamide] |  | D or higher | D or higher | 
43 | O=C(Nc1ccc(F)cc1)C1=C(S)CC(c2ccc(C(F)(F)F)nc2)NC1=O (centres unmarked) [compound No. 1-28, N-(4-fluorophenyl)-4-mercapto-6-oxo-6′-(trifluoromethyl)-1,2,3,6-tetrahydro-[2,3′-bipyridine]-5-carboxamide] | D or higher | D or higher | D or higher | 
44 | CSC1=C(C(=O)Nc2ccc(F)cc2)C(=O)NC(c2ccc(C(F)(F)F)nc2)C1 (centres unmarked) [compound No. 1-29, N-(4-fluorophenyl)-4-(methylthio)-6-oxo-6′-(trifluoromethyl)-1,2,3,6-tetrahydro-[2,3′-bipyridine]-5-carboxamide] |  | D or higher |  | 
45 | C[S+]([O-])C1=C(C(=O)Nc2ccc(F)cc2)C(=O)NC(c2ccc(C(F)(F)F)nc2)C1 (centres unmarked) [compound No. 1-30, N-(4-fluorophenyl)-4-(methylsulfinyl)-6-oxo-6′-(trifluoromethyl)-1,2,3,6-tetrahydro-[2,3′-bipyridine]-5-carboxamide] | D or higher | D or higher | D or higher | 
46 | CN1CC(C)(c2ccc(C(F)(F)F)cc2)C(O)=C(C(=S)Nc2ccc(F)cc2)C1=O (centres unmarked) [compound No. 3-14, N-(4-fluorophenyl)-4-hydroxy-1,5-dimethyl-2-oxo-5-(4-(trifluoromethyl)phenyl)-1,2,5,6-tetrahydropyridine-3-carbothioamide] |  |  |  | ≥ 50%
